Experimental data as given in patent publication US9585862B2, “Patch containing rivastigmine” (priority 2011, dated 2017).

Assay: Compatibility test of adhesives mixed with rivastigmine free base (appearance, miscibility, total impurity)
Assay type: physicochemical
Excerpt: In order to adopt a suitable adhesive for preparing a rivastigmine patch, each of various adhesives was mixed with rivastigmine free base to confirm the appearance, miscibility and compatibility thereof.
For a compatibility test, ten adhesives were used as a candidate material, considering the kind of a polymer and functional group present in the composition of each adhesive, the presence of a crosslinker and a solvent present in the composition. Details of the ten adhesives are shown in Table 2, wherein each product listed under the column “Product name” is an adhesive sold under the respective listed trademark.
Specifically, adhesives containing an acryl- or acrylate-vinylate-based polymer and having no functional group or a hydroxyl or carboxyl group were used. Also, the presence of a crosslinker in the adhesives was evaluated as an important factor to show a compatibility difference. The appearance and miscibility of each adhesive are shown in Table 3, wherein each “Durotak” listed under the column “Ingredient” is a different adhesive sold under the respective trademark.
For example, in the case that the adhesive sold under the trademark DUROTAK 87-202A was used, the color changed to yellow, while in the cases that the adhesives sold under the trademarks DUROTAK 87-2852, 87-2516 and 87-2052 were used, the color changed to brown. The adhesives undergoing a significant color change were commonly confirmed to have a crosslinker.

CCN(C)C(=O)Oc1cccc([C@H](C)N(C)C)c1 [Rivastigmine base, (S)-N-ethyl-3-[(1-dimethylamino)ethyl]-N-methyl-phenyl-carbamate]
Miscibility 2 wks (active ingredient with adhesive, 2 wks): ◯ | Miscibility Initial (active ingredient with adhesive, initial): ◯ | Total impurity (% impurity) 2 wks (rivastigmine base alone or mixed with adhesive, 2 wks): 0.07% | Total impurity (% impurity) Initial (rivastigmine base alone or mixed with adhesive, initial): 0.03%
